Source: patent publication EP2592085B1, “Thiazolo[3,2-a][1,3]diazepine derivatives and pharmaceutical compositions containing the same as anticonvulsant agents and method for their preparation” (King Saud University, priority 2011, dated 2013)

What was measured:
Swiss albino mice [1] = assay: Maximal electroshock (MES) seizure test; assay type: in vivo; settings: for % Protection: MES applied 30 min after compound i.p., dose SGH-35 200 mg/kg (0.78 mmol/kg), SGH-40 100 mg/kg (0.38 mmol/kg), 4 animals; for ED50: Mus musculus, ip, MES, median effective dose, log-probit method; for PI: Protective index = TD50/ED50, MES ED50
Experimental: (§1) The anticonvulsant activity of compounds of the formula 1 in mice was measured using Pentylenetetrazole (PTZ) seizure threshold test (White, H.S. et al. In Antiepileptic Drugs, 4th ed.; L,evy, R.H. et al., Eds, Raven: New York, 1995, pp 99-121). The active compounds of the formula 1 were further tested against maximal electroshock seizure (MES), and picrotoxin induced clonic convulsions, to explore the involvement of GABA-ergic receptors in their anticonvulsant activity. The effect of compounds of the formula 1 on motor performance was studied by chimney test (Dauge, V. et al. Neuropsychopharmacology 2001, 25, 690-98). Median effective (ED50), and median sedative (TD50) were calculated.
The maximal electroshock (MES) seizure is one of the electrical test used to evaluate anticonvulsant activity (White, H.S. et al. In Antiepileptic Drugs, 4th ed.; Levy, R.H. et al., Eds, Raven New York, 1995, pp 99-121). […] Swiss albino mice (25 g body weight) were injected with 25, 50, 100 and 200 mg/kg of SGH-35 and SGH-40 i.p. 30 min later, mice were restrained by hand and subjected to electric shock through their ears, and released immediately following electrical stimulation, to permit observation of the maximal seizure. The maximal seizure typically consists of a short period of initial tonic flexioni and a prolonged period of tonic extension (especially the hind limb). Protection was defined as complete absence of hind limb tonic extension (Table 1).
(§2) In each of the chemical and the electrical methods described above, Swiss albino mice were divided into 4 groups (N = 4 animals). Each group was injected (i.p.) with one of the four selected doses that have proven to obtain a variable percentage of protection […] before the convulsants. The effective dose 50 (ED50) i.e. the dose that protected half of the animals was then calculated using the log-probit method (White, H.S. et al. In Antiepileptic Drugs, 4th ed.; Levy, R.H.et al., Eds, Raven: New York, 1995, pp 99-121).

Swiss albino mice [2] = assay: animal or person; assay type: in vivo; settings: for ED50: Mus musculus, ip, PTZ, median effective dose, log-probit method; for % Protection: PTZ 100 mg/kg i.p. given 30 min after compound i.p., dose SGH-35 200 mg/kg (0.78 mmol/kg), SGH-40 100 mg/kg (0.38 mmol/kg), 4 animals; for PI: male, Swiss albino, mouse, in vivo
Experimental: (§3) Adult male Swiss albino mice (22-28 g), approximately 10-week old, were used to conduct the anticonvulsant evaluation. They were housed in cages and kept at a temperature of 20 ± 2°C and a relative humidity of 55 ± 5% with a light-dark cycle of 12 h and fed with standard diet and water ad libitum. Compounds of the formula 1 have been dissolved in dimethylsulfoxide and administered at dose levels of 25, 50, 100 and 200 mgl/kg intraperitoneal (i.p.). Sodium valproate was freshly dissolved in 0.9 % NaCl and used at dose level of 200 mg/kg (1.38 mmol/kg) i.p., 30 min after the test compounds as a positive control. A control group of mice was included and received intraperitoneal (i.p.) injections of the test compounds' vehicle. […] Picrotoxin (pic) was freshly dissolved in 1 ml 0.1N warmed HCl and the final volume was made up with 0.9 % NaCl. It has been used at dose level of 10 mg/kg i.p. and was given 30 min after the test compounds.
as §1
Pentylenetetrazole (PTZ) seizure threshold test is used to evaluate the potential anticonvulsant activity of compounds of the formula 1 (White, H.S. Et al. In Antiepileptic Drugs, 4th ed.; Levy, R.H. et al., Eds, Raven: New York, 1995, pp 99-121). Each compound was tested in 4 mice groups (Swiss albino mice, 25 g body weight) for each dose level (25, 50, 100 and 200 mg/kg) and was given i.p. 30 min later, animals were received PTZ (100 mg./kg, i.p.) and observed for 30 min. A single 5 seconds episode of clonic spasms was taken as a threshold seizure. SGH-35 and SGH-40 produced 100% protection against PTZ-induced seizures, Table 1. Table 1: ED50, TD50, PI, LD50 and TI for SGH-35 and SGH-40.
as §2

[3] = Acute toxicity determination (LD50); assay type: in vivo; settings: Albino Swiss, mouse, in vivo, ip, mice observed for 72 hours
Experimental: (§4) The acute toxicity determination (LD50) for compounds of formula 1 was performed. Compounds were given intraperitoneally (i.p.) in doses ranging from 0.1-5 mmol/kg. […] All behavioral changes and death during the observation periods were recorded. The percentage of death at each dose level was then calculated, and the LD50 values were obtained (Ghosh, M., Fundamentals of Experimental Pharmacology, Scientific Book Agency, Calcutta. 1984, pp 153-158, 187-189). The protective index (PI) and therapeutic index (TI) of each compound were calculated.
(§5) Initially the approximate LD100 of each test compound was determined. Albino Swiss mice (25 g body weight) were then divided into 4 groups (6 mice each). Each group was then injected with one of 4 selected doses the highest being the LD100 dose. The animals were then observed closely for 4 hours and then occasionally for 72 hours. The percentage of death in each group was then calculated. The LD50 doses were then calculated using the Profit method (Ghosh; M., Fundamentals of Experimental Pharmacology, Scientific Book Agency, Calcutta. 1984, pp 153-158, 187-189).
(§6) The protective index (PI) - i.e. the value that indicates the margin of safety and tolerance of the test compound was calculated by the formula: Protective index (PI) = TD50/ED50. The Therapeutic Index was calculated by the formula: Therepeutic index (TI) = LD50/ED50 (Löscher, W. et al. Epilepsy Res. 1991, 9, 1-10).

Albino Swiss mice = assay: Acute toxicity determination (LD50); assay type: in vivo; settings: Therapeutic index = LD50/ED50 (values match the PTZ ED50)
Experimental: as §4, §5, §6

Swiss albino mice [4] = assay: animal or person; assay type: in vivo; settings: for ED50: Mus musculus, ip; for % Protection: Picrotoxin (8 mg/kg, IP) given 30 min after compound i.p., dose SGH-35 200 mg/kg (0.78 mmol/kg), SGH-40 100 mg/kg (0.38 mmol/kg), 4 animals; for PI: Protective index = TD50/ED50, Pic ED50
Experimental: as §3, §1
Swiss albino mice (25 g body weight) were injected with 25, 50, 100 and 200 mg/kg of SGH-35 and SGH-40 (4 mice, i.p.). 30 min later, animals were injected sc with Pic (10 mg/kg) and observed for 30 min and the percentage protection against convulsive seizures for each compound was calculated (Table I).
as §2

Swiss albino mice [5] = assay: Minimal neurotoxicity (chimney test), motor performance; assay type: in vivo; settings: median sedative dose; chimney test at 15 and 25 min after i.p. administration
Experimental: as §1
(§7) The effect of SGH-35 and SGH-40 on motor performance was studied by chimney test (Dauge, V. et al. Neuropsychopharmacology 2001, 25, 690-98). At 15 and 25 min after i.p. administration of compounds SGH-35 and SGH-40, the inability of mice to climb up backwards in a glass tube of 25 cm length and 3 cm inner diameter within 30 sec was recorded and taken as a measure of neurological deficits. Normal mice climb up in 5-10 sec. The dose that impaired the motor coordination in 50% of the animals tested was labeled as the median toxin dose 50 (TD50).

[6] = as above; assay type: in vivo, mice; settings: Swiss albino, mouse, in vivo, ip; median sedative dose; chimney test at 15 and 25 min after i.p. administration
Experimental: as §1, §7

Row | Compound | % Protection (Swiss albino mice [1]) | ED50 (Swiss albino mice [1]) | PI (Swiss albino mice [1]) | ED50 (Swiss albino mice [2]) | % Protection (Swiss albino mice [2]) | PI (Swiss albino mice [2]) | LD50 at 72 h [3] | TI (Albino Swiss mice) | ED50 (Swiss albino mice [4]) | % Protection (Swiss albino mice [4]) | PI (Swiss albino mice [4]) | TD50 (Swiss albino mice [5]) | TD50 [6]
1 | CCOC(=O)C1=C(C)N2CCCC(=O)N=C2S1 [SGH-35, Ethyl 3-methyl-8-oxo-5,6,7,8-tetrahydro-thiarolo[3,2-a][1,3]diazepinie-2-carboxylate] | 100% | 90 ± 5.7 mg/kg | 2.22 | 127 ± 9.3 mg/kg | 100% | 1.57 | 670 mg/kg | 5.28 | 148 ± 11.1 mg/kg | 100% | 1.35 | 200 ± 12.3 mg/kg | 200 ± 12.3 mg/kg
2 | CC1=C(Br)SC2=NC(=O)CCCN21 [SGH-40, 2-Bromo-3-methyl-6,7-dihydro-thiazolo[3,2-a][1,3]diazepin-8(5H)-one] | 100% | 78 ± 4.1 mg/kg | 2.17 | 112 ± 3.9 mg/kg | 100% | 1.51 | 640 mg/kg | 5.71 | 129 ± 6.1 mg/kg | 100% | 1.31 | 170 ± 6.9 mg/kg | 170 ± 6.9 mg/kg
